Test system: not listed separately
Assay: Half life in plasma (unknown origin)
Type: ADME, cell-free
Conditions: not given

Compound | half-life [h]
Cc1ccc(C)c(OCCCC(C)(C)C(=O)O)c1 [GEMFIBROZIL] | 1.5

Molecular target: T1, Transthyretin (Homo sapiens, UniProt P02766)
Assay: Binding affinity to TTR in human plasma assessed as protein stabilization preincubated for 1 hr followed by urea-mediated denaturation by Western blot analysis
Conditions: not given

Compound | IC50 [µM]
O=c1cc(-c2ccc(O)cc2)oc2cc(O)cc(O)c12 [APIGENIN] | 18

Same assay, conditions: read-out: IC50

Compound | IC50 [µM]
Cc1ccc(C)c(OCCCC(C)(C)C(=O)O)c1 [GEMFIBROZIL] | 180
O=c1cc(-c2ccc(O)c(O)c2)oc2cc(O)cc(O)c12 [LUTEOLIN] | 7
O=C(O)COC(=O)Cc1ccccc1Nc1c(Cl)cccc1Cl [ACECLOFENAC] | 170

The remaining lines, values ahead:

IC50 [µM] | Compound
50 | Cc1ccc(Cl)c(Nc2ccccc2C(=O)O)c1Cl [MECLOFENAMIC ACID]
140 | O=C(O)Cc1ccccc1Nc1c(Cl)cccc1Cl [DICLOFENAC]
40 | Cc1c(Cl)cccc1Nc1ccccc1C(=O)O [TOLFENAMIC ACID]

Molecular target: T1, Transthyretin
Assay: Binding affinity to TTR (unknown origin) by isothermal titration calorimetric analysis
Conditions: not given

Compound | Kd [µM]
O=c1cc(-c2ccc(O)cc2)oc2cc(O)cc(O)c12 [APIGENIN] | 0.25
Cc1ccc(C)c(OCCCC(C)(C)C(=O)O)c1 [GEMFIBROZIL] | 0.1
O=c1cc(-c2ccc(O)c(O)c2)oc2cc(O)cc(O)c12 [LUTEOLIN] | 0.07
O=C(O)COC(=O)Cc1ccccc1Nc1c(Cl)cccc1Cl [ACECLOFENAC] | 1.2

Now from value to compound:

Kd [µM] | Compound
0.48 | Cc1ccc(Cl)c(Nc2ccccc2C(=O)O)c1Cl [MECLOFENAMIC ACID]
1 | O=C(O)Cc1ccccc1Nc1c(Cl)cccc1Cl [DICLOFENAC]
0.15 | Cc1c(Cl)cccc1Nc1ccccc1C(=O)O [TOLFENAMIC ACID]
